In patent publication US9221796B2, “Selective NR2B antagonists” (BRISTOL-MYERS SQUIBB COMPANY, priority 2014, dated 2015):

Each molecule was assayed against NR2B-subtype NMDA receptors (Rattus norvegicus (Rat), UniProt P35439+Q00960) (assay: Radioligand binding assay (3H Ro 25-6981 competition, forebrain membranes)). Settings: 3H Ro 25-6981 (4 nM), read-out: NR2B Binding Ki.
Procedure: Radioligand Binding Assay. […] Buchy D; Klingelschmidt A; Messer J; Bleuel Z; Kemp J A; Richards J G. […] Thawed brains were homogenized using a Dounce homogenizer and centrifuged at 48000×g for 20 min. The pellet was resuspended in cold buffer and homogenized again using a Dounce homogenizer. […] After incubation for 1 hr at room temperature, the membrane bound radioligand was harvested on to GF/B filter plates (treated with 0.5% PEI for 1 hr at room temperature). The filter plates were dried at 50° C. for 20 mins, incubated with microscint 20 for 10 minutes and finally, the counts were read on TopCount (Perkin Elmer). […] CPM values were converted to % inhibition and the concentration response curves were plotted using custom made software. Each experiment was repeated at least twice to obtain the final binding Ki values for experimental compounds.

NR2B-subtype NMDA receptors, sequence (Q00960 27-1482, other chains not shown): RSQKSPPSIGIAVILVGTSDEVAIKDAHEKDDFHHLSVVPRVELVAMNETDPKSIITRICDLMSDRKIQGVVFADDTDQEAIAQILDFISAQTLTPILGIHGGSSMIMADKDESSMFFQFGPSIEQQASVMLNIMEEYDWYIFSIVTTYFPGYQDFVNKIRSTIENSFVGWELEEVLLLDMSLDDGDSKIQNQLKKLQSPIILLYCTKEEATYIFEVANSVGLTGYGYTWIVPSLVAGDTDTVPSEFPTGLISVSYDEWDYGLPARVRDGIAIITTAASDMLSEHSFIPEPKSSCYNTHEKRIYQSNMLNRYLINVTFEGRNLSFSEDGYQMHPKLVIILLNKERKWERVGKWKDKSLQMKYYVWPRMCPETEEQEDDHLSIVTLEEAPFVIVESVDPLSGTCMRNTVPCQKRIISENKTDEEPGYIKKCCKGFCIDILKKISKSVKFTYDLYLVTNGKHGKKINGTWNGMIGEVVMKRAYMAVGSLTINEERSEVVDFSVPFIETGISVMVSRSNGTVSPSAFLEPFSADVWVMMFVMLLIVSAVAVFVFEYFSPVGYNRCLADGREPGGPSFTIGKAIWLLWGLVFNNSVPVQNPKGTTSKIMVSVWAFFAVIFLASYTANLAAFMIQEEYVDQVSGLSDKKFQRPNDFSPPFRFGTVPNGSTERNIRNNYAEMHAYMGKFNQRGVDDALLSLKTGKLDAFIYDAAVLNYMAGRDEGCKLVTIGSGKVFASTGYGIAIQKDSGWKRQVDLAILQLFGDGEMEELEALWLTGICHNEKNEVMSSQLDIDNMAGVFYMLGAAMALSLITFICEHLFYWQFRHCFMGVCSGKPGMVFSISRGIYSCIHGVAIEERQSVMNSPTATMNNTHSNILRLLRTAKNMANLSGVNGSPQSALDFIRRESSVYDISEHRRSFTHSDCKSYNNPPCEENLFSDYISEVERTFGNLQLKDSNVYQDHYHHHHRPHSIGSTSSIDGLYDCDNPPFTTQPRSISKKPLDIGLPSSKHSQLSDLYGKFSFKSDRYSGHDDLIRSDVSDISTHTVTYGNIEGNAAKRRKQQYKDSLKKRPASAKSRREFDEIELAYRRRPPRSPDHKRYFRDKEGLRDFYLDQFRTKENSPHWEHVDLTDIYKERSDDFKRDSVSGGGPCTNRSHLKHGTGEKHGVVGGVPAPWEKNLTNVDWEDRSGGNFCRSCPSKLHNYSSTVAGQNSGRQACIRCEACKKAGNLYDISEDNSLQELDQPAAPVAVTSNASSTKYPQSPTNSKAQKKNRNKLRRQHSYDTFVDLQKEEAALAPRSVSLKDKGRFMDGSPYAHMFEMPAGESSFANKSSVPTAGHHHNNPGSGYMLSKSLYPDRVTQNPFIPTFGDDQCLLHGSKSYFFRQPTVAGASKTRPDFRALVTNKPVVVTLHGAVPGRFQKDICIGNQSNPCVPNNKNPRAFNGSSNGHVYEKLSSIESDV

Row | Ki | SMILES
1 | 44 nM | C[C@@H](c1ccccc1)N1CC[C@@H](N2CCC(c3ccc(O)cc3)CC2)C1=O [Example 33b, (R)-3-(4-(4-Hydroxyphenyl)piperidin-1-yl)-1-((S)-1-phenylethyl)pyrrolidin-2-one]
2 | 670 nM | O=C1C(N2CCC(c3ccc(O)cc3)CC2)CCN1C1CCc2ccccc21 (stereo not shown) [Example 34, 1-(2,3-Dihydro-1H-inden-1-yl)-3-(4-(4-hydroxyphenyl)piperidin-1-yl)pyrrolidin-2-one]
3 | 17 nM | O=C1C(N2CCCC(c3ccc(O)cc3)CC2)CCN1Cc1ccc(F)cc1 (stereo not shown) [Example 35, 1-(4-Fluorobenzyl)-3-(4-(4-hydroxyphenyl)azepan-1-yl)pyrrolidin-2-one]
4 | 34 nM | Cc1ccc(CN2CCC(N3CCCC(c4ccc(O)cc4)CC3)C2=O)cc1 (stereo not shown) [Example 36, 3-(4-(4-Hydroxyphenyl)azepan-1-yl)-1-(4-methylbenzyl)-pyrrolidin-2-one]
5 | 21 nM | O=C1C(N2CCCC(c3ccc(O)cc3)CC2)CCN1Cc1ccccc1 (stereo not shown) [Example 37, 1-Benzyl-3-(4-(4-hydroxyphenyl)azepan-1-yl)pyrrolidin-2-one]
6 | 150 nM | Cc1ccc(CN2CCCC(N3CCC(c4ccc(O)cc4)CC3)C2=O)cc1 (stereo not shown) [Example 38, 4-(4-Hydroxyphenyl)-1′-(4-methylbenzyl)-[1,3′-bipiperidin]-2′-one]
7 | 300 nM | Cc1ccc(CN2CCCC(N3CCC(c4ccc(O)cc4)CC3)C2=O)cc1F (stereo not shown) [Example 39, 1′-(3-Fluoro-4-methylbenzyl)-4-(4-hydroxyphenyl)-[1,3′-bipiperidin]-2′-one]
8 | 480 nM | O=C1C(N2CCC(c3ccc(O)cc3)CC2)CCCN1Cc1ccccc1 (stereo not shown) [Example 40, 1′-Benzyl-4-(4-hydroxyphenyl)-[1,3′-bipiperidin]-2′-one]
9 | 720 nM | O=C1C(N2CCCC(c3ccc(O)cc3)C2)CCCN1Cc1ccc(Cl)cc1 (stereo not shown) [Example 42, 1′-(4-Chlorobenzyl)-3-(4-hydroxyphenyl)-[1,3′-bipiperidin]-2′-one]
10 | 150 nM | O=C1[C@H](N2CCC(c3ccc(O)cc3)CC2)CCN1Cc1ccc(O)c(O)c1 [Example 43, (R)-1-(3,4-Dihydroxybenzyl)-3-(4-(4-hydroxyphenyl)piperidin-1-yl)pyrrolidin-2-one]
11 | 260 nM | Cc1ccc(CN2CC[C@H](N3CC[C@@H](c4ccc(O)c(F)c4)[C@H](F)C3)C2=O)cc1F [Example 45, P-1, (S)-3-((3S,4S)-3-fluoro-4-(3-fluoro-4-hydroxyphenyl)piperidin-1-yl)-1-(3-fluoro-4-methylbenzyl)pyrrolidin-2-one]
12 | 3.1 nM | Cc1ccc(CN2CC[C@@H](N3CC[C@@H](c4ccc(O)c(F)c4)[C@H](F)C3)C2=O)cc1F [Example 45, P-2, (R)-3-((3S,4S)-3-fluoro-4-(3-fluoro-4-hydroxyphenyl)piperidin-1-yl)-1-(3-fluoro-4-methylbenzyl)pyrrolidin-2-one]
13 | 380 nM | Cc1ccc(CN2CC[C@H](N3CC[C@H](c4ccc(O)c(F)c4)[C@@H](F)C3)C2=O)cc1F [Example 45, P-3, (S)-3-((3R,4R)-3-Fluoro-4-(3-fluoro-4-hydroxyphenyl)piperidin-1-yl)-1-(3-fluoro-4-methylbenzyl)pyrrolidin-2-one]
14 | 2.5 nM | Cc1ccc(CN2CC[C@@H](N3CC[C@H](c4ccc(O)c(F)c4)[C@@H](F)C3)C2=O)cc1F [Example 45, P-4, (R)-3-((3R,4R)-3-fluoro-4-(3-fluoro-4-hydroxyphenyl)piperidin-1-yl)-1-(3-fluoro-4-methylbenzyl)pyrrolidin-2-one]
15 | 470 nM | Cc1ccc(CN2CC[C@H](N3CC[C@@H](c4ccc(O)cc4)[C@H](F)C3)C2=O)cc1F [Example 47, P-1, (S)-3-((3S,4S)-3-Fluoro-4-(4-hydroxyphenyl)piperidin-1-yl)-1-(3-fluoro-4-methylbenzyl)pyrrolidin-2-one]
16 | 470 nM | Cc1ccc(CN2CC[C@H](N3CC[C@H](c4ccc(O)cc4)[C@@H](F)C3)C2=O)cc1F [Example 47, P-2, (S)-3-((3R,4R)-3-fluoro-4-(4-hydroxyphenyl)piperidin-1-yl)-1-(3-fluoro-4-methylbenzyl)pyrrolidin-2-one]
17 | 3.8 nM | Cc1ccc(CN2CC[C@@H](N3CC[C@@H](c4ccc(O)cc4)[C@H](F)C3)C2=O)cc1F [Example 47, P-3, (R)-3-((3S,4S)-3-fluoro-4-(4-hydroxyphenyl)piperidin-1-yl)-1-(3-fluoro-4-methylbenzyl)pyrrolidin-2-one]
18 | 3.4 nM | Cc1ccc(CN2CC[C@@H](N3CC[C@H](c4ccc(O)cc4)[C@@H](F)C3)C2=O)cc1F [Example 47, P-4, (R)-3-((3R,4R)-3-fluoro-4-(4-hydroxyphenyl)piperidin-1-yl)-1-(3-fluoro-4-methylbenzyl)pyrrolidin-2-one]
19 | 1700 nM | O=C1[C@@H](N2CC[C@H](c3ccc(O)cc3)[C@@H](F)C2)CCN1Cc1ccc(F)cc1 [Example 48, P-2]
20 | 11 nM | O=C1[C@H](N2CC[C@@H](c3ccc(O)cc3)[C@H](F)C2)CCN1Cc1ccc(F)cc1 [Example 48, P-3]
21 | 13 nM | O=C1[C@H](N2CC[C@H](c3ccc(O)cc3)[C@@H](F)C2)CCN1Cc1ccc(F)cc1 [Example 48, P-4]
22 | 420 nM | Cc1ccc(N2CC[C@H](N3CC[C@H](c4ccc(O)cc4)[C@@H](F)C3)C2=O)cc1F [Example 49, P-1, (S)-3-((3R,4R)-3-fluoro-4-(4-hydroxyphenyl)piperidin-1-yl)-1-(3-fluoro-4-methylphenyl)pyrrolidin-2-one]
23 | 73 nM | Cc1ccc(N2CC[C@@H](N3CC[C@H](c4ccc(O)cc4)[C@@H](F)C3)C2=O)cc1F [Example 49, P-2, (R)-3-((3R,4R)-3-fluoro-4-(4-hydroxyphenyl)piperidin-1-yl)-1-(3-fluoro-4-methylphenyl)pyrrolidin-2-one]

Continued, molecule first:

Row | SMILES | Ki
24 | O=C1[C@H](N2CCC(c3ccc(O)cc3)CC2)CCN1Cc1ccc(Cl)cc1 [Example 18b, (R)-1-(4-Chlorobenzyl)-3-(4-(4-hydroxyphenyl)piperidin-1-yl)pyrrolidin-2-one] | 1.5 nM
25 | Cc1ccc(CN2CCC(N3CCC(c4ccc(O)cc4)CC3)C2=O)cc1F (stereo not shown) [Example 19, 1-(3-Fluoro-4-methylbenzyl)-3-(4-(4-hydroxyphenyl)piperidin-1-yl)pyrrolidin-2-one] | 3.9 nM
26 | Cc1ccc(CN2CCC(N3CC(c4ccc(O)cc4)C3)C2=O)cc1F (stereo not shown) [Example 20, 1-(3-Fluoro-4-methylbenzyl)-3-(3-(4-hydroxyphenyl)azetidin-1-yl)pyrrolidin-2-one] | 43 nM
27 | Cc1ccc(CN2CC[C@@H](N3CC(c4ccc(O)cc4)C3)C2=O)cc1F [Example 21a, (R)-1-(3-Fluoro-4-methylbenzyl)-3-(3-(4-hydroxyphenyl)azetidin-1-yl)pyrrolidin-2-one] | 37 nM
28 | Cc1ccc(CN2CC[C@H](N3CC(c4ccc(O)cc4)C3)C2=O)cc1F [Example 21b, (S)-1-(3-Fluoro-4-methylbenzyl)-3-(3-(4-hydroxyphenyl)azetidin-1-yl)pyrrolidin-2-one] | 410 nM
29 | O=C1C(N2CCC(c3ccc(O)cc3)CC2)CCN1Cc1ccc(O)cc1 (stereo not shown) [Example 24, 1-(4-Hydroxybenzyl)-3-(4-(4-hydroxyphenyl)piperidin-1-yl)pyrrolidin-2-one] | 4.7 nM
30 | O=C1[C@@H](N2CCC(c3ccc(O)cc3)CC2)CCN1Cc1ccc(O)cc1 [Example 25a, (S)-1-(4-Hydroxybenzyl)-3-(4-(4-hydroxyphenyl)piperidin-1-yl)pyrrolidin-2-one] | 1200 nM
31 | O=C1[C@H](N2CCC(c3ccc(O)cc3)CC2)CCN1Cc1ccc(O)cc1 [Example 25b, (R)-1-(4-Hydroxybenzyl)-3-(4-(4-hydroxyphenyl)piperidin-1-yl)pyrrolidin-2-one] | 5.3 nM
32 | Cc1ccc(CN2CCC(N3CCC(c4ccc(O)cc4)CC3)C2=O)cc1C (stereo not shown) [Example 26, 1-(3,4-Dimethylbenzyl)-3-(4-(4-hydroxyphenyl)piperidin-1-yl)pyrrolidin-2-one] | 31 nM
33 | Cc1ccc(CN2CCC(N3CC(c4ccc(O)cc4)C3)C2=O)cc1 (stereo not shown) [Example 27, 3-(3-(4-Hydroxyphenyl)azetidin-1-yl)-1-(4-methylbenzyl)pyrrolidin-2-one] | 20 nM
34 | Cc1ccc(CN2CC[C@H](N3CC(c4ccc(O)cc4)C3)C2=O)cc1 [Example 28a, (S)-3-(3-(4-Hydroxyphenyl)azetidin-1-yl)-1-(4-methylbenzyl)pyrrolidin-2-one] | 420 nM
35 | Cc1ccc(CN2CC[C@@H](N3CC(c4ccc(O)cc4)C3)C2=O)cc1 [Example 28b, (R)-3-(3-(4-Hydroxyphenyl)azetidin-1-yl)-1-(4-methylbenzyl)-pyrrolidin-2-one] | 10 nM
36 | Cc1cc(O)ccc1C1CCN(C2CCN(Cc3ccccc3)C2=O)CC1 (stereo not shown) [Example 29, 1-Benzyl-3-(4-(4-hydroxy-2-methylphenyl)piperidin-1-yl)pyrrolidin-2-one] | 78 nM
37 | O=C1C(N2CCC(c3ccc(O)c(F)c3)CC2)CCN1Cc1ccccc1 (stereo not shown) [Example 30, 1-Benzyl-3-(4-(3-fluoro-4-hydroxyphenyl)piperidin-1-yl)pyrrolidin-2-one] | 4.7 nM
38 | O=C1C(N2CCCCC(c3ccc(O)cc3)C2)CCN1Cc1ccc(F)cc1 (stereo not shown) [Example 31, 1-(4-Fluorobenzyl)-3-(3-(4-hydroxyphenyl)azepan-1-yl)pyrrolidin-2-one] | 800 nM
39 | C[C@@H](c1ccccc1)N1CCC(N2CCC(c3ccc(O)cc3)CC2)C1=O (stereo partly drawn) [Example 32, 3-(4-(4-Hydroxyphenyl)piperidin-1-yl)-1-((S)-1-phenylethyl)pyrrolidin-2-one] | 100 nM
40 | C[C@@H](c1ccccc1)N1CC[C@H](N2CCC(c3ccc(O)cc3)CC2)C1=O [Example 33a, (S)-3-(4-(4-Hydroxyphenyl)piperidin-1-yl)-1-((S)-1-phenylethyl)pyrrolidin-2-one] | ≥ 5000 nM
